Test results published in patent US20120141478A1, “COMPOSITIONS AND METHODS FOR DELIVERING ANTI-ACTIVATED RAS ANTIBODIES” (Cellectis S.A., priority 2006, published 2012).

Assays:
[1] = molecular target: mutated Ki-RAS of HCT 116 cells (human) (UniProt P01116); assay: cell-based or functional assay
K-RASmt HCT 116 cells = assay: In vitro anti-proliferative activity (WST-1) on HCT 116; format: cell-based, human
Description: Cells were incubated for 120 hours with the antibody alone (Y13259; 700 nM), or the DPV3-Y13259 conjugate (700 nM), with DPV3-maleimide as internal controls (DPV3-mal; 700 nM). Non-relevant IgG1 anti-peroxydase immunoglobulins (IgG PO; 700 nM) and an inhibitor of RAS farnesyltransferase (FTI-276; 100 nM) were used as internal controls. Results are expressed as mean±SEM of three independent experiments performed in duplicate. *p<0.05 vs not treated cells.
HCT 116 and HT-29 were seeded at 8×10^3 cells/well (96-well plates) in medium+0.5% and 10% FCS (Foetal Calf Serum) respectively. The day after, cells were treated with increasing concentrations of tested compounds in complete medium (+10% FCS) and cells were counted overtime at 24 h, 48 h, 72 h and 120 h using the WST-1 method, described hereafter. The medium was removed and 100 μl of fresh medium without FCS supplemented with 10% WST-1 solution was added on cells for 2 h at 37° C., 5% CO2. Measurement of A450 nm−A690 nm (blank=0 cells) was performed to determine cell number.
CPP-Y13259 conjugates were tested in a cell proliferation assay on mutated RAS-expressing and wild-type RAS expressing cell lines (HCT 116 and HT-29, respectively). FTI-276, a farnesyltransferase inhibitor that inhibits RAS-mediated cell proliferation constituted a positive control. […]

[2] = test system: human lung carcinoma expressing K-RAS; conditions: cited from earlier work

| efficient concentration, HCT 116 cell proliferation (WST-1) [1] [nM] | Compound | duration of the effect on HCT 116 cell proliferation (K-RASmt HCT 116 cells; 120 hours = maximum time tested) | effect on HCT 116 cell proliferation (K-RASmt HCT 116 cells; FTI-276 100 nM, positive control) | effect on tumor growth in nude mice [2] |
| --- | --- | --- | --- | --- |
| 85 to 700 | DPV3-Y13259 conjugate (antibody) | – | – | – |
| – | CSCC[C@H](NC(=O)c1ccc(NC[C@@H](N)CS)cc1-c1ccccc1)C(=O)O [FTI-276] | at least 120 hours | inhibited HCT 116 cell proliferation | block the growth of a human lung carcinoma expressing K-RAS in nude mice |
